# Assay results: PubChem BioAssay (NCI)
#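 A five-concentration, 48-hour dose response in 96-well plates underlies each endpoint, interpolated linearly between surrounding concentrations. TGI: concentration producing complete growth inhibition.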
# Experiments:
# Test in all cases: NCI anticancer screen, dose series, 48 h
# 786-0 renal = tested on: 786-0 renal
# A498 renal = tested on: A498 renal
# A549 NSCLC = tested on: A549 NSCLC
# ACHN renal = tested on: ACHN renal
# BT-549 breast = tested on: BT-549 breast
# CAKI-1 renal = tested on: CAKI-1 renal
# CCRF-CEM leukemia = tested on: CCRF-CEM leukemia
# COLO 205 colon = tested on: COLO 205 colon
# DU-145 prostate = tested on: DU-145 prostate
# EKVX NSCLC = tested on: EKVX NSCLC
# HCC-2998 colon = tested on: HCC-2998 colon
# HCT-116 colon = tested on: HCT-116 colon
# HCT-15 colon = tested on: HCT-15 colon
# HL-60(TB) leukemia = tested on: HL-60(TB) leukemia
# HOP-62 NSCLC = tested on: HOP-62 NSCLC
# HOP-92 NSCLC = tested on: HOP-92 NSCLC
# HS 578T breast = tested on: HS 578T breast
# HT29 colon = tested on: HT29 colon
# IGROV1 ovarian = tested on: IGROV1 ovarian
# K-562 leukemia = tested on: K-562 leukemia
# KM12 colon = tested on: KM12 colon
# LOX IMVI melanoma = tested on: LOX IMVI melanoma
# M14 melanoma = tested on: M14 melanoma
# MALME-3M melanoma = tested on: MALME-3M melanoma
# MCF7 breast = tested on: MCF7 breast
# MDA-MB-231 breast = tested on: MDA-MB-231 breast
# MDA-MB-435 = tested on: MDA-MB-435
# MDA-N = tested on: MDA-N
# MOLT-4 leukemia = tested on: MOLT-4 leukemia
# NCI-H226 lung = tested on: NCI-H226 lung
# NCI-H23 lung = tested on: NCI-H23 lung
# NCI-H460 lung = tested on: NCI-H460 lung
# NCI-H522 lung = tested on: NCI-H522 lung
# NCI/ADR-RES ovarian = tested on: NCI/ADR-RES ovarian
# OVCAR-3 ovarian = tested on: OVCAR-3 ovarian
# OVCAR-4 ovarian = tested on: OVCAR-4 ovarian
# OVCAR-5 ovarian = tested on: OVCAR-5 ovarian
# OVCAR-8 ovarian = tested on: OVCAR-8 ovarian
# PC-3 prostate = tested on: PC-3 prostate
# RPMI-8226 leukemia = tested on: RPMI-8226 leukemia
# RXF 393 renal = tested on: RXF 393 renal
# SF-268 CNS = tested on: SF-268 CNS
# SF-295 CNS = tested on: SF-295 CNS
# SF-539 CNS = tested on: SF-539 CNS
# SK-MEL-2 melanoma = tested on: SK-MEL-2 melanoma
# SK-MEL-28 melanoma = tested on: SK-MEL-28 melanoma
# SK-MEL-5 melanoma = tested on: SK-MEL-5 melanoma
# SN12C renal = tested on: SN12C renal
# SNB-19 CNS = tested on: SNB-19 CNS
# SNB-75 CNS = tested on: SNB-75 CNS
# SR leukemia = tested on: SR leukemia
# SW-620 colon = tested on: SW-620 colon
# T-47D breast = tested on: T-47D breast
# U251 CNS = tested on: U251 CNS
# UACC-257 melanoma = tested on: UACC-257 melanoma
# UACC-62 melanoma = tested on: UACC-62 melanoma
# UO-31 renal = tested on: UO-31 renal
# SK-OV-3 ovarian = tested on: SK-OV-3 ovarian
# TK-10 renal = tested on: TK-10 renal
smiles,measurement,setting,value
CCc1c(-c2ccc(OC)cc2)c(=O)oc2cc(O)ccc12,TGI,786-0 renal,> 100 µM
same,TGI,A498 renal,98.7 µM
same,TGI,A549 NSCLC,> 100 µM
same,TGI,ACHN renal,> 100 µM
same,TGI,BT-549 breast,75.9 µM
same,TGI,CAKI-1 renal,> 100 µM
same,TGI,CCRF-CEM leukemia,> 100 µM
same,TGI,COLO 205 colon,97.1 µM
same,TGI,DU-145 prostate,> 100 µM
same,TGI,EKVX NSCLC,> 100 µM
same,TGI,HCC-2998 colon,> 100 µM
same,TGI,HCT-116 colon,> 100 µM
same,TGI,HCT-15 colon,> 100 µM
same,TGI,HL-60(TB) leukemia,32.6 µM
same,TGI,HOP-62 NSCLC,> 100 µM
same,TGI,HOP-92 NSCLC,> 100 µM
same,TGI,HS 578T breast,> 100 µM
same,TGI,HT29 colon,> 100 µM
same,TGI,IGROV1 ovarian,> 100 µM
same,TGI,K-562 leukemia,> 100 µM
same,TGI,KM12 colon,> 100 µM
same,TGI,LOX IMVI melanoma,> 100 µM
same,TGI,M14 melanoma,56.8 µM
same,TGI,MALME-3M melanoma,79.5 µM
same,TGI,MCF7 breast,> 100 µM
same,TGI,MDA-MB-231 breast,> 100 µM
same,TGI,MDA-MB-435,> 100 µM
same,TGI,MDA-N,> 100 µM
same,TGI,MOLT-4 leukemia,57.9 µM
same,TGI,NCI-H226 lung,> 100 µM
same,TGI,NCI-H23 lung,> 100 µM
same,TGI,NCI-H460 lung,> 100 µM
same,TGI,NCI-H522 lung,> 100 µM
same,TGI,NCI/ADR-RES ovarian,> 100 µM
same,TGI,OVCAR-3 ovarian,87.5 µM
same,TGI,OVCAR-4 ovarian,> 100 µM
same,TGI,OVCAR-5 ovarian,> 100 µM
same,TGI,OVCAR-8 ovarian,> 100 µM
same,TGI,PC-3 prostate,83.3 µM
same,TGI,RPMI-8226 leukemia,47.6 µM
same,TGI,RXF 393 renal,> 100 µM
same,TGI,SF-268 CNS,> 100 µM
same,TGI,SF-295 CNS,> 100 µM
same,TGI,SF-539 CNS,> 100 µM
same,TGI,SK-MEL-2 melanoma,> 100 µM
same,TGI,SK-MEL-28 melanoma,> 100 µM
same,TGI,SK-MEL-5 melanoma,33.8 µM
same,TGI,SN12C renal,> 100 µM
same,TGI,SNB-19 CNS,> 100 µM
same,TGI,SNB-75 CNS,> 100 µM
same,TGI,SR leukemia,58.4 µM
same,TGI,SW-620 colon,> 100 µM
same,TGI,T-47D breast,> 100 µM
same,TGI,U251 CNS,> 100 µM
same,TGI,UACC-257 melanoma,61.3 µM
same,TGI,UACC-62 melanoma,> 100 µM
same,TGI,UO-31 renal,68.4 µM
NCCCCCCn1c(-c2ccc(Br)cc2)csc1=Nc1ccccc1,TGI,786-0 renal,21.9 µM
same,TGI,A498 renal,33.6 µM
same,TGI,A549 NSCLC,25 µM
same,TGI,ACHN renal,27.7 µM
same,TGI,BT-549 breast,27.4 µM
same,TGI,CAKI-1 renal,28.3 µM
same,TGI,CCRF-CEM leukemia,21.6 µM
same,TGI,COLO 205 colon,3.18 µM
same,TGI,DU-145 prostate,26.3 µM
same,TGI,EKVX NSCLC,26.7 µM
same,TGI,HCC-2998 colon,12.8 µM
same,TGI,HCT-116 colon,15.1 µM
same,TGI,HCT-15 colon,22.1 µM
same,TGI,HOP-62 NSCLC,32.4 µM
same,TGI,HOP-92 NSCLC,32.4 µM
same,TGI,HS 578T breast,35.6 µM
same,TGI,HT29 colon,19.9 µM
same,TGI,K-562 leukemia,4.84 µM
same,TGI,KM12 colon,19.7 µM
same,TGI,LOX IMVI melanoma,13.1 µM
same,TGI,M14 melanoma,3.17 µM
same,TGI,MALME-3M melanoma,25.6 µM
same,TGI,MCF7 breast,17.4 µM
same,TGI,MDA-MB-231 breast,30.3 µM
same,TGI,MDA-MB-435,22.6 µM
same,TGI,MDA-N,19.7 µM
same,TGI,MOLT-4 leukemia,14.8 µM
same,TGI,NCI-H226 lung,39.5 µM
same,TGI,NCI-H23 lung,29.8 µM
same,TGI,NCI-H460 lung,27.1 µM
same,TGI,NCI-H522 lung,24 µM
same,TGI,NCI/ADR-RES ovarian,28.8 µM
same,TGI,OVCAR-3 ovarian,23.7 µM
same,TGI,OVCAR-4 ovarian,25.9 µM
same,TGI,OVCAR-5 ovarian,24.6 µM
same,TGI,OVCAR-8 ovarian,26.2 µM
same,TGI,PC-3 prostate,18.3 µM
same,TGI,RPMI-8226 leukemia,16.2 µM
same,TGI,RXF 393 renal,26.2 µM
same,TGI,SF-268 CNS,31.3 µM
same,TGI,SF-295 CNS,29.5 µM
same,TGI,SF-539 CNS,30.6 µM
same,TGI,SK-MEL-2 melanoma,33.4 µM
same,TGI,SK-MEL-28 melanoma,27.2 µM
same,TGI,SK-MEL-5 melanoma,21.7 µM
same,TGI,SK-OV-3 ovarian,31.1 µM
same,TGI,SN12C renal,26.5 µM
same,TGI,SNB-19 CNS,29 µM
same,TGI,SNB-75 CNS,24.2 µM
same,TGI,SR leukemia,11.3 µM
same,TGI,SW-620 colon,17.6 µM
same,TGI,T-47D breast,18.3 µM
same,TGI,TK-10 renal,26.7 µM
same,TGI,U251 CNS,20.9 µM
same,TGI,UACC-257 melanoma,29.6 µM
same,TGI,UACC-62 melanoma,32.1 µM
same,TGI,UO-31 renal,22.1 µM
